Experimental findings from US12421249B2, “Inhibitors of APOL1 and methods of using same” (Vertex Pharmaceuticals Incorporated, priority 2020, dated 2025) are described below.

Like-named read-outs stand apart in the source and are kept apart here.

One assay addresses T1, APOL1 G1 (Homo sapiens, UniProt O14791, I384M/S342G).
T1 sequence (O14791 28-398 S342G/I384M): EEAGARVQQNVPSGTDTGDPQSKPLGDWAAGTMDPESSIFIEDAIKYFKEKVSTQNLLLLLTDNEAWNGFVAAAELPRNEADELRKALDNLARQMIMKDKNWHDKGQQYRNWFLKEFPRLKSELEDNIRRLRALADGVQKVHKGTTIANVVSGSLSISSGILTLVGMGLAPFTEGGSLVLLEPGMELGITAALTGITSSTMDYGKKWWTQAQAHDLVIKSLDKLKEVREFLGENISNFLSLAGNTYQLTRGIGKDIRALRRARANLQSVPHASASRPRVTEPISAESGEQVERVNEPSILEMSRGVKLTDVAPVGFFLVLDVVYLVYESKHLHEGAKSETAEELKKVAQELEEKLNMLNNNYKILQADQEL
As to the kind of experiment: Trypanosoma brucei brucei Lysis Assay Using APOL1 Recombinant Protein (AlamarBlue viability readout). The assay is classed as cell-based. To be noted: for IC50: IP50 = IC50 for cell proliferation, read-out: Trypanosome Assay IP50; for Emax: read-out: Trypanosome Assay Max Activity (%). From the text:
Trypanosoma brucei brucei is a blood stream parasite to which human, gorillas, and baboons are immune due to the presence of the APOL1 protein in their HDL particles. The protein is uptaken by the parasite via the TbHpHb receptor located in its flagellar pocket and is bonded by the Hpr protein contained in the HDL particles which triggers the receptor endocytosis by the parasite.
Following endocytosis, the formed vesicle containing the HDL particle matures from early to late endosome, and subsequently to lysosome. The concomitant pH change in the lumen of the vesicle triggers the insertion of the APOL1 protein into the membrane of the late endosome/lysosome and hereby triggers lysosomal membrane permeabilization and as a further downstream event, trypanosome lysis. Trypanosoma brucei brucei is sensitive to lysis by all three APOL1 variants (G0, G1, and G2).
The Trypanosoma brucei brucei lysis assay is a lysis assay of the parasite using recombinant APOL1 protein variant followed by a fluorescent detection method of viability by the addition of AlamarBlue reagent to the assay well, a general metabolic redox indicator (AlamarBlue assay).
Briefly, the AlamarBlue active compound, resazurin, a blue, water soluble, non-toxic and cell permeable molecule, which can be followed by absorbance, is reduced by various metabolic pathways into resorufin, a red compound which can be followed by either absorbance or fluorescence. The assay allows the calculation of the percent viability (percent of living Trypanosomes remaining in each well) at the end of a lysis relative to the untreated condition by interpolation of fluorescent values (FLU) on a standard curve with a known amount of seeded trypanosome/well.
Trypanosoma brucei brucei (ATCC, Cat. No. PRA-382)
• Lister 427 VSG 221 bloodstream form.
Equipment • E1-Clip Tip pipette 12 channel adjustable 2-125 μL, Cat. No. 4672070BT • ThermoFisher MultiDrop 384, Cat. No. 5840300 • Multidrop • Agilent Bravo, Cat. No. G5409A • Bravo • SpectraMax M5 Assay Ready Plates (ARPs) • ARPs comes in two formats: • […] final top concentration with a 2.5 fold dilution down. • […] final top concentration with a 3 fold dilution down. • Both have a 10 point Dose response. • 0.1% DMSO final in the Black Assay Plate. • Compounds are diluted 1000 fold in the Black Assay Plate. • Each plate is designed for 14 compounds in duplicate. • In the final Black Assay Plate: • Column 1: Media only (no APOL1) (100% viable) • Column 2-23: 0.05 μg/mL APOL1 (˜EC90) (10% viable with APOL1) • Column 24: 0.1 μg/mL APOL1 (EC100) (Approx. […] Step 2, Day 4 • Centrifuge at 800×g for 5 minutes at room temperature. • Resuspend in 1 mL media. • Make a 1:25 fold dilution (10 μL/240 μL media). • Count on a hemocytometer (after adding parasites). • Let sit for 1-2 minutes for the parasites to settle. • Count should be approximately 100 viable motile parasites/16 grid or approximately 25×10^6 parasites/flask. • Passage the parasites by adding 1×10^6 parasites/T75 flask in 20 mL media. • Passage the parasites by adding 2.33×10^6 parasites/T175 flask in 46.6 mL media. • For every T75 flask should make enough for approximately 1.5×384 well assay plates. • For every T175 flask should make enough for approximately 3.8×384 well assay plates. Step 3, Day 6 • Centrifuge at 800×g for 5 minutes. • Resuspend in 3 mL assay media (No phenol red, no FBS) per 75 starting flask. • Resuspend in 7 mL assay media (No phenol red, no FBS) per 175 flask • Make a 1:25 fold dilution. • Count by hemocytometer. • Every T75 flask set up should have approximately 75×10^6 parasites/flask (verify doubling time=8.7 hours±1 hour). • Every T175 flask set up should have approximately 175×10^6 parasites/flask (verify doubling time=8.7 hours±1 hour). • Require 46×10^6 parasites per 384 well plate (at 120,000 parasites per well). […]

The target in the next assay is T2, APOL1 (Homo sapiens, UniProt O14791).
T2 sequence (O14791 1-398 S342G/I384M): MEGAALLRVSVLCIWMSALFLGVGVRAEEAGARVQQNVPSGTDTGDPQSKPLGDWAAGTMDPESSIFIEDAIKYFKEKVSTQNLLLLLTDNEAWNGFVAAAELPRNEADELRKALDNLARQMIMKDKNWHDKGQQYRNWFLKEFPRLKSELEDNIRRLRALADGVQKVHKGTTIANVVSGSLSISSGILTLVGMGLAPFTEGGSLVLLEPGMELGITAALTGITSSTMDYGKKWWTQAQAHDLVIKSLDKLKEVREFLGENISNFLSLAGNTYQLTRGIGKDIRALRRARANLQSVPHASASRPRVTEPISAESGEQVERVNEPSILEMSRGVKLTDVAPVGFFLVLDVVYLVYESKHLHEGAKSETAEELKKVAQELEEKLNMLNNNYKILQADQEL
As to the kind of experiment: Multi-Tox Assay (MultiTox-Fluor Multiplex Cytotoxicity Assay in tet-inducible APOL1 T-REx-HEK293 cells; Table 46 does not say which APOL1 variant G0/G1/G2). The format is cell-based. To be noted: APOL1 variant not given; for IC50: IP50 = IC50 for cell proliferation.

Regarding `COc1ccc(C2CC3(CC(C)N2)OCCc2cc(Cl)sc23)nn1` (mixture of isomers) [Compound 76], the IC50 at APOL1 G1 (Trypanosome Assay) and on APOL1 was less than 50 nM each time. Moreover, the Emax at APOL1 G1 (Trypanosome Assay) is 106%.
In the case of `COc1cccc(C2CC3(CC(C)N2)OCCc2cc(Cl)sc23)n1` (mixture of isomers) [Compound 135], at APOL1 G1 (Trypanosome Assay), the IC50 was 50 to 500 nM and the Emax was 94%. Also, on APOL1, the IC50 fell in the range of 50 to 500 nM.
On to `CC1CC2(CC(C)N1)OCCc1cc(Cl)sc12` (mixture of isomers) [Compound 194, 2-chloro-2′,6′-dimethyl-spiro[4,5-dihydrothieno[2,3-c]pyran-7,4′-piperidine]], for which the IC50 on APOL1 G1 (Trypanosome Assay) and against APOL1 was 50 to 500 nM each time. The Emax at APOL1 G1 worked out at 117%.
For `CC1CC2(CC(CO)N1)OCCc1cc(Cl)sc12` (mixture of isomers) [Compound 210, (2-chloro-6′-methyl-spiro[4,5-dihydrothieno[2,3-c]pyran-7,4′-piperidine]-2′-yl)methanol], on APOL1 G1 (Trypanosome Assay), the IC50 was more than 500 nM and the Emax was 104%. At APOL1, this molecule registered an IC50 of more than 500 nM.
On to `C[C@H]1C[C@@]2(C[C@@H](c3cn(C)nn3)N1)OC[C@H](O)c1cc(Cl)sc12` [Compound 177, (2′S,4R,6′S,7S)-2-chloro-2′-methyl-6′-(1-methyltriazol-4-yl)spiro[4,5-dihydrothieno[2,3-c]pyran-7,4′-piperidine]-4-ol], for which, at APOL1 G1 (Trypanosome Assay), the IC50 is 50 to 500 nM and the Emax is 107%.
For `Cc1nccn1CCCn1cc([C@@H]2C[C@]3(C[C@H](C)N2)OCC(F)(F)c2cc(Cl)sc23)nn1` [Compound 341], at APOL1, the “Multi-Tox Assay Max Activity (%)” value stood at 98.0% and the IC50 lay in the range of 50 to 500 nM.
As to `COCC(O)Cn1cc([C@@H]2C[C@]3(C[C@H](C)N2)OCC(F)(F)c2cc(Cl)sc23)nn1` (stereo partly shown) [Compound 342], at APOL1, the “Multi-Tox Assay Max Activity (%)” value worked out at 98.0% and the IC50 was 50 to 500 nM.
For `C[C@H]1C[C@@]2(C[C@@H](c3cn(CC4CCCCO4)nn3)N1)OCC(F)(F)c1cc(Cl)sc12` (stereo partly shown) [Compound 343], at APOL1, the “Multi-Tox Assay Max Activity (%)” value was determined as 97.0% and the IC50 is 50 to 500 nM.
For the molecule `C[C@H]1C[C@@]2(C[C@@H](c3cn(CCCS(C)(=O)=O)nn3)N1)OCC(F)(F)c1cc(Cl)sc12` [Compound 344], at APOL1, the “Multi-Tox Assay Max Activity (%)” value was found to be 99.0% and the IC50 was less than 50 nM.
For `CC(C)C(=O)NCCn1cc([C@@H]2C[C@]3(C[C@H](C)N2)OCC(F)(F)c2cc(Cl)sc23)nn1` [Compound 345], on APOL1, the “Multi-Tox Assay Max Activity (%)” value is 99.0% and the IC50 was less than 50 nM.
For `C[C@H]1C[C@@]2(C[C@@H](c3cn(Cc4nc5ncccc5[nH]4)nn3)N1)OCC(F)(F)c1cc(Cl)sc12` [Compound 346], on APOL1, the “Multi-Tox Assay Max Activity (%)” value is given as 99.0% and the IC50 was in the range of 50 to 500 nM.
Turning to `C[C@H]1C[C@@]2(C[C@@H](c3cn(Cc4ccccc4S(C)(=O)=O)nn3)N1)OCC(F)(F)c1cc(Cl)sc12` [Compound 347], at APOL1, the “Multi-Tox Assay Max Activity (%)” value was determined as 96.0% and the IC50 was 50 to 500 nM.
As for `COc1ccc(C(O)Cn2cc([C@@H]3C[C@]4(C[C@H](C)N3)OCC(F)(F)c3cc(Cl)sc34)nn2)cc1` (stereo partly shown) [Compound 348], at APOL1, the “Multi-Tox Assay Max Activity (%)” value was determined as 97.0% and the IC50 is 50 to 500 nM.
Take `C[C@H]1C[C@@]2(C[C@@H](c3cn(Cc4n[nH]c5ccccc45)nn3)N1)OCC(F)(F)c1cc(Cl)sc12` [Compound 349]: at APOL1, the “Multi-Tox Assay Max Activity (%)” value is listed as 91.0% and the IC50 is 50 to 500 nM.
For `C[C@H]1C[C@@]2(C[C@@H](c3cn(Cc4ncnc5[nH]ccc45)nn3)N1)OCC(F)(F)c1cc(Cl)sc12` [Compound 350], at APOL1, the “Multi-Tox Assay Max Activity (%)” value is 99.0% and the IC50 was less than 50 nM.
The matching figures for `Cc1cc(C)nc(CCn2cc([C@@H]3C[C@]4(C[C@H](C)N3)OCC(F)(F)c3cc(Cl)sc34)nn2)c1` [Compound 351]: 98.0% and less than 50 nM.
`C[C@H]1C[C@@]2(C[C@@H](c3cn(Cc4ccc(C#N)nc4)nn3)N1)OCC(F)(F)c1cc(Cl)sc12` [Compound 352]: on APOL1, the “Multi-Tox Assay Max Activity (%)” value stood at 99.0% and the IC50 was less than 50 nM.
Consider `Cc1noc(C)c1Cn1cc([C@@H]2C[C@]3(C[C@H](C)N2)OCC(F)(F)c2cc(Cl)sc23)nn1` [Compound 353], for which, on APOL1, the “Multi-Tox Assay Max Activity (%)” value is reported as 100.0% and the IC50 is less than 50 nM.
Take `C[C@H]1C[C@@]2(C[C@@H](c3cn(CCOc4ccccc4F)nn3)N1)OCC(F)(F)c1cc(Cl)sc12` [Compound 354]: at APOL1, the “Multi-Tox Assay Max Activity (%)” value is listed as 99.0% and the IC50 fell in the range of 50 to 500 nM.
Turning to `C[C@H]1C[C@@]2(C[C@@H](c3cn(Cc4ccc(S(C)(=O)=O)cc4)nn3)N1)OCC(F)(F)c1cc(Cl)sc12` [Compound 355], on APOL1, the “Multi-Tox Assay Max Activity (%)” value is 98.0% and the IC50 is 50 to 500 nM.
In the case of `C[C@H]1C[C@@]2(C[C@@H](c3cn(CC(=O)N4CCCCC4)nn3)N1)OCC(F)(F)c1cc(Cl)sc12` [Compound 356], at APOL1, the IC90 lay within 50 to 500 nM, the “Multi-Tox Assay Max Activity (%)” value is reported as 99.0% and the IC50 is 50 to 500 nM.
In the case of `C[C@H]1C[C@@]2(C[C@@H](c3cn(CC4(CO)CC4)nn3)N1)OCC(F)(F)c1cc(Cl)sc12` [Compound 357], at APOL1, the “Multi-Tox Assay Max Activity (%)” value was 99.0% and the IC50 was in the range of 50 to 500 nM.
Turning to `C[C@H]1C[C@@]2(C[C@@H](c3cn(Cc4cnc5cnccn45)nn3)N1)OCC(F)(F)c1cc(Cl)sc12` [Compound 358], on APOL1, the “Multi-Tox Assay Max Activity (%)” value was 98.0% and the IC50 is less than 50 nM.
Consider `C[C@H]1C[C@@]2(C[C@@H](c3cn(CCCO)nn3)N1)OCC(F)(F)c1cc(Cl)sc12` [Compound 359], for which, on APOL1, the “Multi-Tox Assay Max Activity (%)” value was found to be 98.0% and the IC50 was less than 50 nM.
The matching figures for `COc1ccc(Cn2cc([C@@H]3C[C@]4(C[C@H](C)N3)OCC(F)(F)c3cc(Cl)sc34)nn2)cn1` [Compound 360]: 99.0% and 50 to 500 nM.

What is called IC90 is the point of the concentration-response curve where the effect stands at 90%. A high value points to weaker potency.
